Assay results as given in patent US20230115176A1 (Ra Pharmaceuticals, Inc., priority 2019, published 2023).

Biological target: T1, Human C5 (Homo sapiens, UniProt P01031)
T1 construct: purchased Complement Technology
Assay: Red blood cell (RBC) hemolysis assay, luminescent (Example 13, Table 22); note: 1.5% C5-depleted human serum
Assay type: cell-based
Settings: sheep EA cells, […] C5-depleted human serum, 0.5 nM human C5, 1 hour 37° C., luminescence
Text: Compound CU0136 is a racemic mixture of Compound CU0186 and CU0187. Numbers in parenthesis following compound numbers indicate alternate enantiomers (as distinguished by retention time during chromatographical separation).

T1 sequence (P01031 19-1676): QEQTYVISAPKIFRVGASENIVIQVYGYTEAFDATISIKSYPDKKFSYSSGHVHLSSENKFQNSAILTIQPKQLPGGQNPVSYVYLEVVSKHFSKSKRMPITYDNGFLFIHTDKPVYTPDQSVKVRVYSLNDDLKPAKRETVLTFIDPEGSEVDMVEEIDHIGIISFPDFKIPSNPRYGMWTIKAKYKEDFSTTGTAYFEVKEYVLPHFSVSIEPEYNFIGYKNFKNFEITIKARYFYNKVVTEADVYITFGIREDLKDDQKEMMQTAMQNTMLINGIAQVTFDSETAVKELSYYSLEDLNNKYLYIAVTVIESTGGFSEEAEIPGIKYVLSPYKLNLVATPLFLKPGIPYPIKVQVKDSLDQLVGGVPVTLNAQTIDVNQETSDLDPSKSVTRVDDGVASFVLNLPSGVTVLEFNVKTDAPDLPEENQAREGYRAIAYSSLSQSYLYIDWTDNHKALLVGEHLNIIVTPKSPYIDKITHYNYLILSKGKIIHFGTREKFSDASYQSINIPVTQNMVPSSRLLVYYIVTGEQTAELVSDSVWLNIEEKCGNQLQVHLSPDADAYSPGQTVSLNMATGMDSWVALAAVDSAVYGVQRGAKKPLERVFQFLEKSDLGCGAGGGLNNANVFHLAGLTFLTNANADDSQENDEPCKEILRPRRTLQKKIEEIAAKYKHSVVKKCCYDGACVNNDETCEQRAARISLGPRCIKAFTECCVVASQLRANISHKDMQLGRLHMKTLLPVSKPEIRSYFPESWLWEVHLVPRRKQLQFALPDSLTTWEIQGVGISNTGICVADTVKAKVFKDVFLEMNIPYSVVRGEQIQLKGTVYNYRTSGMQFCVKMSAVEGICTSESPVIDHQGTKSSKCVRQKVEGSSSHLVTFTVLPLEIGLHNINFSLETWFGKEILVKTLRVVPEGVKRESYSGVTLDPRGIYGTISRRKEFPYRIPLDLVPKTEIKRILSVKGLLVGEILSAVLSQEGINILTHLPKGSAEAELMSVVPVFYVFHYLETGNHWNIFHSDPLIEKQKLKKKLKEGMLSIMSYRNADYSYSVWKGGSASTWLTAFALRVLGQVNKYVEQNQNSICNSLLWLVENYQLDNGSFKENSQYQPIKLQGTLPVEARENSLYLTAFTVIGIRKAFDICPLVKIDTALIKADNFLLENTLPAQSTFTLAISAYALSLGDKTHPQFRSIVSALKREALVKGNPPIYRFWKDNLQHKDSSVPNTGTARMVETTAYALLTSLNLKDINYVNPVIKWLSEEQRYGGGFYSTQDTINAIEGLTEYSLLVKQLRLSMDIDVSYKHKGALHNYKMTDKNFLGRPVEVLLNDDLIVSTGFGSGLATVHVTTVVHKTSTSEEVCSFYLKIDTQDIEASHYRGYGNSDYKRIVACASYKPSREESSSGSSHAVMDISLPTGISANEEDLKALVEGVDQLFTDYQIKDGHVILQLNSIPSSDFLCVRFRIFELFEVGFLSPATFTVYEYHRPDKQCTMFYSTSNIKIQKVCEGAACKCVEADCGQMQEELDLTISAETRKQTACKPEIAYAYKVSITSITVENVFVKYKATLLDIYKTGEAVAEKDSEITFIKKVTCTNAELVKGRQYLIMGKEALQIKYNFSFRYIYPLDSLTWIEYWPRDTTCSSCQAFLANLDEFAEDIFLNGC

Compound | IC50
CCCCCOc1cc(N2CCCN(Cc3ccc(CC(=O)N4CCCC4)cc3OC)C2=O)ccc1OC [CU0006] | 19.5 nM
CCCCCOc1cc(N2CCN(Cc3ccccc3Cl)C2=O)ccc1OC [CU0009] | 203 nM
CCCCCOc1cc(N2CCCN(Cc3ccccc3C3CC3)C2=O)ccc1OC [CU0015] | 519 nM
CCCCCOc1cc(N2CCN(C[C@@H](O)c3ccccc3)C2=O)ccc1OC [CU0016] | 2620 nM
CCCCCOc1cc(N2CCCN(Cc3cccc4c3ccn4Cc3cccnc3)C2=O)ccc1OC [CU0023] | 20.7 nM
CCCCCOc1cc(N2CCCN(Cc3cccc4c3ccn4CC(=O)N(C)C)C2=O)ccc1C1CC1 [CU0026] | 62.5 nM
CCCCCOc1cc(N2CCN(Cc3ccnc4c3ccn4CC(=O)N(C)C)C2=O)ccc1C1CC1 [CU0034] | 1230 nM
COc1ccc(N2CCCCN(Cc3ccnc4c3ccn4CC(=O)N(C)C)C2=O)cc1OCCCC(C)C [CU0038] | 267 nM
CCCCCOc1cc(N2CCCN(C(C)c3ccnc4c3ccn4C3CCN(C)C3=O)C2=O)ccc1OC (centres unmarked) [CU0040(1)] | 66.5 nM
CCCCCOc1cc(N2CCCN(C(C)c3ccnc4c3ccn4C3CCN(C)C3=O)C2=O)ccc1OC (centres unmarked) [CU0040(2)] | 76.3 nM
CCCCCOc1cc(N2CCN(Cc3ccnc4c3ccn4CC(=O)N3CCOC(COC)C3)C2=O)ccc1OC (centres unmarked) [CU0047] | 3140 nM
CCCCCOc1cc(N2CCN(Cc3ccnc4c3ccn4CC(=O)N3CCCOCC3)C2=O)ccc1OC [CU0052] | 61.4 nM
CCCCCOc1cc(N2CCCN(Cc3ccnc4c3ccn4CC(=O)N3CCCOCC3)C2=O)ccc1OC [CU0053] | 23.3 nM
CCCCCOc1cc(N2CCCN(Cc3ccnc4c3ccn4CC(=O)N3CCCOCC3)C2=O)ccc1C1CC1 [CU0054] | 117 nM
CCCCCOc1cc(N2CCN(Cc3ccnc4c3ccn4CC(=O)N3CCNC(=O)C3)C2=O)ccc1OC [CU0058] | 2490 nM
CCCCCOc1cc(N2CCCN(Cc3cccc4nc(C)oc34)C2=O)ccc1OC [CU0066] | 243 nM
CCCCCOc1cc(N2CCCN(Cc3cccc4nc(CC)oc34)C2=O)ccc1OC [CU0067] | 946 nM
CCCCCOc1cc(N2CCCN(Cc3ccc(CC(=O)O)cc3OC)C2=O)ccc1OC [CU0102] | 53.7 nM
CCCCCOc1cc(N2CCCN(Cc3ccc(CC(=O)N(C)C)cc3OC)C2=O)ccc1C1CC1 [CU0113] | 54.8 nM
CCCCCOc1cc(N2CCCN(Cc3ccc(CC(=O)N4CCCOCC4)cc3OC)C2=O)ccc1C1CC1 [CU0114] | 99.1 nM
CCCCCOc1cc(N2CCCN(Cc3cccc(-c4cnn(C5COC5)c4)c3F)C2=O)ccc1OC [CU0119] | 52 nM

Compound | IC50
CCCCCOc1cc(N2CCCN(Cc3cccc(-c4cnn(C(C)OCC)c4)c3F)C2=O)ccc1OC (centres unmarked) [CU0125] | 73.6 nM
CCCCCOc1cc(N2CCCN(Cc3cccc(-c4cnn(CC(C)C)c4)c3F)C2=O)ccc1OC [CU0126] | 153 nM
CCCCCOc1cc(N2CCCN(Cc3cccc(C4=CCNCC4)c3F)C2=O)ccc1OC [CU0128] | 60.6 nM
CCCCCOc1cc(N2CCCN(Cc3cccc(N4CCN(C5COC5)CC4)c3F)C2=O)ccc1OC [CU0130] | 147 nM
CCCCCOc1cc(N2CCCN(Cc3cccc(N4CCC(C(C)(C)O)C4)c3F)C2=O)ccc1OC (centres unmarked) [CU0131] | 151 nM
CCCCCOc1cc(N2CCCN(Cc3cccc(N4CCOCC4)c3F)C2=O)ccc1OC [CU0132] | 301 nM
CCCCCOc1cc(N2CCCN(Cc3cccc(N4CCN(C)CC4)c3F)C2=O)ccc1OC [CU0133] | 82.2 nM
CCCCCOc1cc(N2CCCN(Cc3ccc(CC(=O)NC4CCN(C(C)=O)C4)cc3Cl)C2=O)ccc1OC (centres unmarked) [CU0134] | 16.1 nM
CCCCCOc1cc(N2CCCN(Cc3ccc(CC(=O)NC4CCN(C(C)C)CC4)cc3Cl)C2=O)ccc1OC [CU0135] | 14.5 nM
CCCCCOc1cc(N2CCCN(Cc3ccc(CNC(=O)OC)cc3OC)C2=O)ccc1OC [CU0137] | 10 nM
CCCCCOc1cc(N2CCCN(Cc3ccc(CCOC(=O)N4CCCC4)cc3OC)C2=O)ccc1OC [CU0138] | 55.4 nM
CCCCCOc1cc(N2CCCN(Cc3ccc(CCn4ccnc4)cc3OC)C2=O)ccc1OC [CU0139] | 91.7 nM
COc1cc(CC(=O)NC2CCN(C(C)=O)C2)ccc1CN1CCCN(c2ccc(OC)c(OCCCC(C)(F)F)c2)C1=O (centres unmarked) [CU0142] | 18.3 nM
COc1ccccc1CN1CCCN(c2ccc(OC)c(OCCCC(C)(F)F)c2)C1=O [CU0143] | 23.3 nM
CCCCCOc1cc(N2CCCN(Cc3ccc(F)c(C4=CCNCC4)c3)C2=O)ccc1OC [CU0144] | 109 nM
COc1cc(CC(=O)N2CCCOCC2)ccc1CN1CCCN(c2ccc(OC)c(OCCCC(C)(F)F)c2)C1=O [CU0146] | 12.5 nM
CCCCCOc1cc(N2CCCN(Cc3ccc(CCn4ccnn4)cc3OC)C2=O)ccc1OC [CU0147] | 46.4 nM
CCCCCOc1cc(N2CCCN(Cc3ccc(CCn4cnnn4)cc3OC)C2=O)ccc1OC [CU0148] | 36 nM
CCCCCOc1cc(N2CCCN(Cc3ccc(CN(C)C(=O)OC)cc3OC)C2=O)ccc1OC [CU0149] | 24.1 nM
CCCCCOc1cc(N2CCCN(Cc3ccc(F)c(-c4cnn(C5CCN(C)CC5)c4)c3)C2=O)ccc1OC [CU0150] | 87.6 nM
CCCCCOc1cc(N2CCCN(Cc3cc(C4=CCNCC4)ccc3OC)C2=O)ccc1OC [CU0151] | 707 nM

Compound | IC50
CCCCCOc1cc(N2CCCN(Cc3cc(-c4cnn(C5CCN(C)CC5)c4)ccc3OC)C2=O)ccc1OC [CU0152] | 146 nM
CCCCCOc1cc(N2CCCN(Cc3ccc(Br)cc3OC)C2=O)ccc1OC [CU0153] | 233 nM
CCCCCOc1cc(N2CCCN(Cc3cccc(C4=CCNCC4)c3OC)C2=O)ccc1OC [CU0155] | 43.7 nM
CCCCCOc1cc(N2CCCN(Cc3cc(OC)cc(C4=CCNCC4)c3)C2=O)ccc1OC [CU0156] | 241 nM
CCCCCOc1cc(N2CCCN(Cc3cccc(-c4cnn(C5CCN(C)CC5)c4)c3OC)C2=O)ccc1OC [CU0157] | 146 nM
CCCCCOc1cc(N2CCCN(Cc3cc(OC)cc(-c4cnn(C5CCN(C)CC5)c4)c3)C2=O)ccc1OC [CU0158] | 27.8 nM
CCCCCOc1cc(N2CCCN(Cc3ccc(CCO)cc3OC)C2=O)ccc1OC [CU0159] | 98.8 nM
COc1cc(Cl)ccc1CN1CCCN(c2ccc(OC)c(OCc3ccccc3)c2)C1=O [CU0162] | 2870 nM
COc1cc(F)ccc1CN1CCCN(c2ccc(OC)c(OCc3ccccc3)c2)C1=O [CU0163] | 1000 nM
COc1ccc(F)cc1CN1CCCN(c2ccc(OC)c(OCc3ccccc3)c2)C1=O [CU0164] | 592 nM
CCCCCOc1cc(N2CCCN(Cc3ccc(F)cc3OC)C2=O)ccc1OC [CU0165] | 36 nM
CCCCCOc1cc(N2CCCN(Cc3ccc(Cl)cc3OC)C2=O)ccc1OC [CU0166] | 92.1 nM
C=CCCCOc1cc(N2CCCN(Cc3cc(F)ccc3OC)C2=O)ccc1OC [CU0167] | 39.9 nM
COc1ccc(F)cc1CN1CCCN(c2ccc(OC)c(OCC3CCCC3)c2)C1=O [CU0168] | 232 nM
CCC#CCOc1cc(N2CCCN(Cc3cc(F)ccc3OC)C2=O)ccc1OC [CU0169] | 82.4 nM
CCC(F)(F)CCOc1cc(N2CCCN(Cc3ccc(CC(=O)N(C)C)cc3OC)C2=O)ccc1OC [CU0171] | 45.1 nM
CCCCCOc1cc(N2CCCN(Cc3ccc(CN4CCOCC4)cc3OC)C2=O)ccc1OC [CU0172] | 37.3 nM
CCC(F)(F)CCOc1cc(N2CCCN(Cc3ccc(CC(=O)N4CCCOCC4)cc3OC)C2=O)ccc1OC [CU0174] | 36.7 nM
CCC(F)(F)CCOc1cc(N2CCCN(Cc3ccccc3OC)C2=O)ccc1OC [CU0176] | 111 nM
C#CCCCOc1cc(N2CCCN(Cc3cc(F)ccc3OC)C2=O)ccc1OC [CU0179] | 156 nM
COc1ccc(F)cc1CN1CCCN(c2ccc(OC)c(OCc3ccc(C)cc3)c2)C1=O [CU0180] | 411 nM

Compound | IC50
COc1ccc(F)cc1CN1CCCN(c2ccc(OC)c(OCc3cccc(C)c3)c2)C1=O [CU0181] | 119 nM
COc1ccc(F)cc1CN1CCCN(c2ccc(OC)c(OCc3ccccc3C)c2)C1=O [CU0182] | 936 nM
COc1ccc(F)cc1CN1CCCN(c2ccc(OC)c(OCCCc3ccccc3)c2)C1=O [CU0183] | 238 nM
COc1ccc(F)cc1CN1CCCN(c2ccc(OC)c(OCC[C@@H]3C[C@@H]4CC[C@H]3C4)c2)C1=O [CU0184] | 32.4 nM
COc1ccc(F)cc1CN1CCCN(c2ccc(OC)c(OCCC3CCCC3)c2)C1=O [CU0185] | 183 nM
CCCCCOc1cc(N2CCCN(Cc3ccc(CCOCCN4CCCC4)cc3OC)C2=O)ccc1OC [CU0189] | 413 nM
CCCCCOc1cc(N2CCCN(Cc3ccc(CNC(=O)C4CN(C)C4)cc3OC)C2=O)ccc1OC [CU0191] | 87.9 nM
CCCCCOc1cc(N2CCCN(Cc3ccc(CNC(=O)OCC)cc3OC)C2=O)ccc1OC [CU0192] | 19.1 nM
COc1ccc(F)cc1CN1CCCN(c2ccc(OC)c(OCCc3ccccc3)c2)C1=O [CU0193] | 45 nM
CC/C=C\COc1cc(N2CCCN(Cc3cc(F)ccc3OC)C2=O)ccc1OC [CU0194] | 94.6 nM
COc1ccc(F)cc1CN1CCCN(c2ccc(OC)c(OCCCC(F)(F)C(F)(F)F)c2)C1=O [CU0195] | 49 nM
CCC(F)(F)CCOc1cc(N2CCCN(Cc3ccc(CC(=O)N4CCO[C@H](COC)C4)cc3OC)C2=O)ccc1OC [CU0197] | 31.6 nM
COc1ccc(F)cc1CN1CCCN(c2ccc(OC)c(OCC3CC4(CCC4)C3)c2)C1=O [CU0198] | 70.1 nM
COc1cc(CC(=O)N(C)C)ccc1CN1CCCN(c2ccc(OC)c(OCc3ccccc3)c2)C1=O [CU0199] | 370 nM
CCCCCOc1cc(N2CCCN(Cc3ccc(C(O)c4nccn4C)cc3OC)C2=O)ccc1OC (centres unmarked) [CU0200] | 8.9 nM
CCCCCOc1cc(N2CCCN(Cc3ccc(CNC(=O)OC4CC4)cc3OC)C2=O)ccc1OC [CU0202] | 10.8 nM
CCCCCOc1cc(N2CCCN(Cc3ccc(CCOC(C)C)cc3OC)C2=O)ccc1OC [CU0203] | 30 nM
CCCCCOc1cc(N2CCCN(Cc3ccc(CCOC(=O)N(C)C)cc3OC)C2=O)ccc1OC [CU0204] | 21.6 nM
COc1ccc(F)cc1CN1CCCN(c2ccc(OC)c(OCCC[C@H]3C[C@@H]3C)c2)C1=O [CU0205] | 5.1 nM
COc1ccc(F)cc1CN1CCCN(c2ccc(OC)c(OCCC[C@H]3C[C@H]3C)c2)C1=O [CU0206] | 11.9 nM
